According to PubChem BioAssay (NCI):
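Five compound concentrations were applied to cells in 96-well plates for 48 hours; endpoints were derived by simple linear interpolation of the resulting dose-response curve. TGI denotes the concentration required for complete inhibition of growth.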

Tests used:
Experiment in all cases: DTP human tumour cell line panel, 48 h
[1] = system: SK-MEL-5 melanoma
[2] = system: SF-539 CNS
[3] = system: MDA-MB-435
[4] = system: A498 renal
[5] = system: CCRF-CEM leukemia
[6] = system: SNB-19 CNS
[7] = system: SK-MEL-2 melanoma
[8] = system: EKVX NSCLC
[9] = system: SF-268 CNS
[10] = system: TK-10 renal

SMILES: COc1cc(C(c2cccc3ccccc23)N2C(=O)CCC2C(=O)NCc2ccccc2)cc(OC)c1OC (stereo unspecified)
- TGI [1]: > 100 µM
- TGI [2]: > 100 µM
- TGI [3]: > 100 µM
- TGI [4]: > 100 µM
- TGI [5]: > 100 µM
- TGI [6]: > 100 µM
- TGI [7]: > 100 µM
- TGI [8]: > 100 µM
- TGI [9]: > 100 µM

SMILES: C[C@@H]1CC[C@@H](C)[C@](C)(CCc2ccoc2)C/C=C\C=C/1C(=O)O
- TGI [1]: > 50 µM
- TGI [2]: > 50 µM
- TGI [4]: > 50 µM
- TGI [5]: > 50 µM
- TGI [10]: > 50 µM
- TGI [6]: > 50 µM
- TGI [7]: > 50 µM
- TGI [8]: > 50 µM

SMILES: CC(=O)c1ccc(N2CCN(C3=CC(=O)c4c(O)ccc(O)c4C3=O)CC2)cc1
- TGI [2]: > 100 µM
- TGI [4]: > 100 µM
- TGI [5]: > 100 µM
- TGI [10]: > 100 µM
- TGI [6]: > 100 µM
- TGI [8]: > 100 µM
- TGI [9]: > 100 µM

SMILES: Cc1occ2c1C(=O)CC1C2[C@@H](O)CC2C(C)(C)CCC[C@]12C (stereo partly specified)
- TGI [1]: > 100 µM
- TGI [2]: > 100 µM
- TGI [4]: > 100 µM
- TGI [5]: > 100 µM
- TGI [6]: > 100 µM
- TGI [8]: > 100 µM
- TGI [9]: > 100 µM

SMILES: Cc1cc(S(=O)(=O)Nc2nc3ccccc3n2-c2ccccc2)c(S)cc1Cl
- TGI [1]: > 100 µM
- TGI [2]: > 100 µM
- TGI [3]: > 100 µM
- TGI [5]: > 100 µM
- TGI [6]: > 100 µM
- TGI [7]: > 100 µM
- TGI [8]: > 100 µM
- TGI [9]: > 100 µM

SMILES: O=S(=O)(O)c1cc(O)c2c(O)c(N=Nc3cccc4ccccc34)c(S(=O)(=O)O)cc2c1
- TGI [1]: > 100 µM
- TGI [2]: > 100 µM
- TGI [3]: > 100 µM
- TGI [4]: > 100 µM
- TGI [10]: > 100 µM
- TGI [6]: > 100 µM
- TGI [7]: > 100 µM
- TGI [8]: > 100 µM
- TGI [9]: > 100 µM

SMILES: O/N=C1\CCc2nonc2\C1=N/Nc1ccccc1
- TGI [1]: > 100 µM
- TGI [2]: > 100 µM
- TGI [3]: > 100 µM
- TGI [5]: > 100 µM
- TGI [10]: > 100 µM
- TGI [6]: > 100 µM
- TGI [7]: > 100 µM
- TGI [8]: > 100 µM
- TGI [9]: > 100 µM

SMILES: CN(C)C(=O)C(F)(F)C(c1ccc(Br)cc1)C1C(=O)N(C)C(=O)N(C)C1=O (stereo unspecified)
- TGI [1]: > 100 µM
- TGI [3]: > 100 µM
- TGI [4]: > 100 µM
- TGI [5]: > 100 µM
- TGI [10]: > 100 µM
- TGI [6]: > 100 µM
- TGI [7]: > 100 µM
- TGI [8]: > 100 µM
- TGI [9]: > 100 µM

SMILES: COC(=O)C1=C(C)N(NC(=O)c2ccccc2)C2(O)CCCC(=O)C12C (stereo unspecified)
- TGI [1]: > 100 µM
- TGI [2]: > 100 µM
- TGI [4]: > 100 µM
- TGI [10]: > 100 µM
- TGI [6]: > 100 µM
- TGI [7]: > 100 µM

SMILES: [N-]=[N+]=NC[C@H]1OCO[C@H](CN=[N+]=[N-])[C@H]2OCCOCCOc3ccccc3OCCOCCO[C@@H]21
- TGI [1]: > 100 µM
- TGI [2]: > 100 µM
- TGI [3]: > 100 µM
- TGI [5]: > 100 µM
- TGI [10]: > 100 µM
- TGI [6]: > 100 µM
- TGI [7]: > 100 µM
- TGI [8]: > 100 µM
- TGI [9]: > 100 µM

SMILES: C/C(=C\Cc1cc(O)ccc1O)CCc1c(C)c(O)c(O)c(C=O)c1C
- TGI [1]: 30.2 µM
- TGI [2]: 42.1 µM
- TGI [4]: > 100 µM
- TGI [5]: 9.6 µM
- TGI [10]: > 100 µM
- TGI [6]: > 100 µM
- TGI [7]: 54.4 µM
- TGI [8]: > 100 µM
- TGI [9]: 68.5 µM

SMILES: N#Cc1c(Nc2nc3ccccc3s2)c2ccccc2n2c1nc1ccccc12
- TGI [1]: > 100 µM
- TGI [2]: > 100 µM
- TGI [3]: > 100 µM
- TGI [4]: > 100 µM
- TGI [10]: > 100 µM
- TGI [6]: > 100 µM
- TGI [7]: > 100 µM
- TGI [8]: > 100 µM
- TGI [9]: > 100 µM

SMILES: O=C1c2ccccc2-c2nc(-c3ccccc3)cc3c2c1nc1ccccc13
- TGI [1]: 13.3 µM
- TGI [3]: 3.51 µM
- TGI [5]: 28.2 µM
- TGI [10]: 42.5 µM
- TGI [6]: 52.9 µM
- TGI [7]: 51.4 µM
- TGI [8]: 88.3 µM
- TGI [9]: 65.7 µM

SMILES: CN(/N=N/c1nc[nH]c1C(N)=O)C1CCCCC1
- TGI [1]: > 100 µM
- TGI [2]: > 100 µM
- TGI [4]: > 100 µM
- TGI [5]: > 100 µM
- TGI [10]: > 100 µM
- TGI [6]: > 100 µM
- TGI [7]: > 100 µM
- TGI [8]: > 100 µM
- TGI [9]: > 100 µM

SMILES: Cc1nn(C)c2nc3ccc(Cl)cc3c(-c3ccccc3)c12
- TGI [2]: > 100 µM
- TGI [3]: > 100 µM
- TGI [4]: > 100 µM
- TGI [5]: > 100 µM
- TGI [6]: > 100 µM
- TGI [7]: > 100 µM
- TGI [8]: > 100 µM
- TGI [9]: > 100 µM

SMILES: C#CCSc1nc(N)c2ncn(C3OC(COP(=O)(O)O)C(O)C3O)c2n1 (stereo unspecified)
- TGI [1]: > 239 µM
- TGI [2]: > 239 µM
- TGI [4]: > 239 µM
- TGI [5]: > 239 µM
- TGI [10]: > 239 µM
- TGI [6]: > 239 µM
- TGI [7]: > 239 µM
- TGI [8]: > 239 µM
- TGI [9]: > 239 µM

SMILES: COP(=O)(OC)C(NC=O)P(=O)(OC)OC
- TGI [1]: > 100 µM
- TGI [2]: > 100 µM
- TGI [3]: > 100 µM
- TGI [4]: > 100 µM
- TGI [5]: > 100 µM
- TGI [10]: > 100 µM
- TGI [6]: > 100 µM
- TGI [8]: > 100 µM
- TGI [9]: > 100 µM

SMILES: CC(=O)Nc1ccc(C(=O)NN2C(=O)C(Cl)C2c2ccc(O)cc2)cc1 (stereo unspecified)
- TGI [1]: > 100 µM
- TGI [2]: > 100 µM
- TGI [4]: > 100 µM
- TGI [5]: > 100 µM
- TGI [10]: > 100 µM
- TGI [6]: > 100 µM
- TGI [7]: > 100 µM
- TGI [8]: > 100 µM
- TGI [9]: > 100 µM

SMILES: CCCCc1c2c(nc3c1CCc1cc4cc5c(nc4nc1-3)-c1nc3c(c(CCCC)c1CC5)CCC/C3=C\c1ccccc1)/C(=C/c1ccccc1)CCC2
- TGI [2]: > 100 µM
- TGI [5]: > 100 µM
- TGI [10]: > 100 µM
- TGI [6]: > 100 µM
- TGI [8]: > 100 µM
- TGI [9]: > 100 µM

SMILES: Cc1c(C#N)c2nnn(-c3ccccc3)c(=O)n2c1-c1ccccc1
- TGI [1]: 16.5 µM
- TGI [4]: > 25.1 µM
- TGI [5]: > 20.7 µM
- TGI [10]: > 100 µM
- TGI [6]: > 100 µM
- TGI [7]: > 72.9 µM
- TGI [8]: > 34.5 µM
- TGI [9]: > 100 µM

SMILES: Cc1nn(C(=O)c2ccncc2)c2c1C(c1cccc([N+](=O)[O-])c1)SC(N)=N2 (stereo unspecified)
- TGI [1]: > 10 µM
- TGI [2]: > 10 µM
- TGI [3]: > 10 µM
- TGI [5]: > 10 µM
- TGI [10]: > 10 µM
- TGI [6]: > 10 µM
- TGI [7]: > 10 µM
- TGI [8]: > 10 µM
- TGI [9]: > 10 µM

SMILES: C=CCC1(CC)C(=O)NC(=O)NC1=O
- TGI [2]: > 100 µM
- TGI [5]: > 100 µM
- TGI [10]: > 100 µM
- TGI [6]: > 100 µM
- TGI [8]: > 100 µM
- TGI [9]: > 100 µM

SMILES: COc1cccc(NC(=O)CC(=O)NNCC(=O)Nc2nnc(-c3ccc(N(CCC#N)S(=O)(=O)c4ccccc4)cc3)s2)c1
- TGI [1]: > 100 µM
- TGI [2]: > 100 µM
- TGI [10]: > 100 µM
- TGI [6]: > 100 µM
- TGI [7]: > 100 µM
- TGI [8]: > 100 µM
- TGI [9]: > 100 µM

SMILES: O/N=C1/C2CC3CC1(c1ccccc1)CC(/C3=N/O)/C2=N\O (stereo unspecified)
- TGI [1]: > 100 µM
- TGI [2]: > 100 µM
- TGI [3]: > 100 µM
- TGI [4]: > 100 µM
- TGI [5]: > 100 µM
- TGI [10]: > 100 µM
- TGI [6]: > 100 µM
- TGI [7]: > 100 µM
- TGI [8]: > 100 µM
